Reference: PubChem BioAssay AID1918948 (Molecular Pharmacology Branch, DTP, NCI, 2023)
Values joined by “and” are separate entries in the source; they are usually repeats but may differ in a detail not shown here. Equal entries are not always repeated. Values belong to the compound of their own block, whether it stands above or below them.

Tested on: K-562 leukemia growth, % test/control
Assay: Anticancer human tumor K-562 cell line growth inhibition;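 further: spheroids exposed to compounds for 7 days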;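 on viability, T/C: 100% = DMSO vehicle wells and lower values mean fewer viable cells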
Conditions: spheroids with HUVEC and MSC; for viability, T/C: stronger effect = lower value
Procedure, shortened: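 Multicellular complex spheroids of tumor cells with human endothelial cells (HUVEC) and mesenchymal stem cells; the LSD1 inhibitor iadademstat was combined with standard-of-care or investigational agents. Top concentration at or near clinical Cmax, half-log dilutions; final DMSO ≤0.25%.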

[1] = curve of first compound, second compound 0.1 µM
[2] = curve of first compound, second compound 0.316 µM
[3] = curve of first compound, second compound 1 µM
[4] = curve of first compound, second compound 3.16 µM
[5] = curve of first compound, second compound 10 µM
[6] = second compound 0.1 µM, first compound 0.0316 µM
[7] = second compound 0.1 µM, first compound 0.1 µM
[8] = second compound 0.316 µM, first compound 0.0316 µM
[9] = second compound 0.316 µM, first compound 0.1 µM
[10] = second compound 1 µM, first compound 0.0316 µM
[11] = second compound 1 µM, first compound 0.1 µM
[12] = second compound 3.16 µM, first compound 0.0316 µM
[13] = second compound 3.16 µM, first compound 0.1 µM
[14] = second compound 10 µM, first compound 0.0316 µM
[15] = second compound 10 µM, first compound 0.1 µM

SMILES: CC1(C)CCC(CN2CCN(c3ccc(C(=O)NS(=O)(=O)c4ccc(NCC5CCOCC5)c([N+](=O)[O-])c4)c(Oc4cnc5[nH]ccc5c4)c3)CC2)=C(c2ccc(Cl)cc2)C1 + NC1CCC(NC2CC2c2ccccc2)CC1
IC50 [1]: 6560 nM | IC50 [2]: 6650 nM | IC50 [3]: 6570 nM | IC50 [4]: 6940 nM | IC50 [5]: 6520 nM | viability, T/C [6]: 99.8% | viability, T/C [7]: 102% | viability, T/C (second compound 0.1 µM, first compound 0.316 µM): 101% | viability, T/C (second compound 0.1 µM, first compound 1 µM): 104% | viability, T/C (second compound 0.1 µM, first compound 3.16 µM): 109% | viability, T/C (second compound 0.1 µM, first compound 10 µM): 19.1% | viability, T/C [8]: 102% | viability, T/C [9]: 104% | viability, T/C (second compound 0.316 µM, first compound 0.316 µM): 104% | viability, T/C (second compound 0.316 µM, first compound 1 µM): 101% | viability, T/C (second compound 0.316 µM, first compound 3.16 µM): 110% | viability, T/C (second compound 0.316 µM, first compound 10 µM): 20% | viability, T/C [10]: 104% | viability, T/C [11]: 104% | viability, T/C (second compound 1 µM, first compound 0.316 µM): 107% | viability, T/C (second compound 1 µM, first compound 1 µM): 108% | viability, T/C (second compound 1 µM, first compound 3.16 µM): 110% | viability, T/C (second compound 1 µM, first compound 10 µM): 17.6% | viability, T/C [12]: 105% | viability, T/C [13]: 103% | viability, T/C (second compound 3.16 µM, first compound 0.316 µM): 104% | viability, T/C (second compound 3.16 µM, first compound 1 µM): 108% | viability, T/C (second compound 3.16 µM, first compound 3.16 µM): 106% | viability, T/C (second compound 3.16 µM, first compound 10 µM): 24.3% | viability, T/C [14]: 97.6% | viability, T/C [15]: 99.6% | viability, T/C (second compound 10 µM, first compound 0.316 µM): 99.8% | viability, T/C (second compound 10 µM, first compound 1 µM): 101% | viability, T/C (second compound 10 µM, first compound 3.16 µM): 101% | viability, T/C (second compound 10 µM, first compound 10 µM): 20.5%

SMILES: CC[C@@]1(O)C(=O)OCc2c1cc1n(c2=O)Cc2cc3c(CN(C)C)c(O)ccc3nc2-1 + NC1CC1c1ccc(-c2cccc(O)c2)cc1
IC50 [1]: 7.67 nM | IC50 [2]: 5.74 nM | IC50 [3]: 5.4 nM | IC50 [4]: 4.98 nM | IC50 [5]: 4.19 nM | viability, T/C (second compound 0.1 µM, first compound 0.000316 µM): 113% | viability, T/C (second compound 0.1 µM, first compound 0.001 µM): 107% | viability, T/C (second compound 0.1 µM, first compound 0.00316 µM): 61.6% | viability, T/C (second compound 0.1 µM, first compound 0.01 µM): 50.7% | viability, T/C [6]: 18.9% | viability, T/C [7]: 8.32% | viability, T/C (second compound 0.316 µM, first compound 0.000316 µM): 109% | viability, T/C (second compound 0.316 µM, first compound 0.001 µM): 106% | viability, T/C (second compound 0.316 µM, first compound 0.00316 µM): 60.2% | viability, T/C (second compound 0.316 µM, first compound 0.01 µM): 38.5% | viability, T/C [8]: 13.9% | viability, T/C [9]: 5.85% | viability, T/C (second compound 1 µM, first compound 0.000316 µM): 107% | viability, T/C (second compound 1 µM, first compound 0.001 µM): 100% | viability, T/C (second compound 1 µM, first compound 0.00316 µM): 59.9% | viability, T/C (second compound 1 µM, first compound 0.01 µM): 36.5% | viability, T/C [10]: 12% | viability, T/C [11]: 6.28% | viability, T/C (second compound 3.16 µM, first compound 0.000316 µM): 104% | viability, T/C (second compound 3.16 µM, first compound 0.001 µM): 99.7% | viability, T/C (second compound 3.16 µM, first compound 0.00316 µM): 56.5% | viability, T/C (second compound 3.16 µM, first compound 0.01 µM): 35.1% | viability, T/C [12]: 11% | viability, T/C [13]: 6.02% | viability, T/C (second compound 10 µM, first compound 0.000316 µM): 99.4% | viability, T/C (second compound 10 µM, first compound 0.001 µM): 94.9% | viability, T/C (second compound 10 µM, first compound 0.00316 µM): 52.4% | viability, T/C (second compound 10 µM, first compound 0.01 µM): 29.4% | viability, T/C [14]: 9.44% | viability, T/C [15]: 3.98%

IC50 (curve of compound): > 1000 nM
SMILES: Nc1ncn(C2CC(O)C(CO)O2)c(=O)n1 (centres undefined)
viability, T/C (compound 0.00316 µM): 94.7% and 99.7% | viability, T/C (compound 0.01 µM): 93.9% and 96.9% | viability, T/C (compound 0.0316 µM): 88.5% and 96.1% | viability, T/C (compound 0.1 µM): 79.7% and 89.2% | viability, T/C (compound 0.316 µM): 72.3% and 74.6% | viability, T/C (compound 1 µM): 67.1% and 75.9%

IC50 (curve of compound): 47.6 nM and < 9.49 nM
SMILES: NS(=O)(=O)OCC1CC(n2ccc3c(NC4CCc5ccccc54)ncnc32)CC1O (centres undefined)
viability, T/C (compound 0.00949 µM): 65.6% and 51.5% | viability, T/C (compound 0.03 µM): 47% and 34.4% | viability, T/C (compound 0.0949 µM): 49.3% and 36.1% | viability, T/C (compound 0.3 µM): 34.9% and 20.1% | viability, T/C (compound 0.949 µM): 18% and 13.5% | viability, T/C (compound 3 µM): 11.5% and 4.24%
